Measured values published in patent US20250340532A1, “HETEROCYCLIC COMPOUND CCR4 INHIBITOR AND USER THEREOF” (Xizang Haisco Pharmaceutical Co., Ltd., priority 2022, published 2025).
pIC50: −log10 of the molar value.

Target: T1, CCR4 (Homo sapiens, UniProt P51679)
T1 construct: expressed in transfected cells; host or cells: HEK293
T1 sequence (P51679 1-360): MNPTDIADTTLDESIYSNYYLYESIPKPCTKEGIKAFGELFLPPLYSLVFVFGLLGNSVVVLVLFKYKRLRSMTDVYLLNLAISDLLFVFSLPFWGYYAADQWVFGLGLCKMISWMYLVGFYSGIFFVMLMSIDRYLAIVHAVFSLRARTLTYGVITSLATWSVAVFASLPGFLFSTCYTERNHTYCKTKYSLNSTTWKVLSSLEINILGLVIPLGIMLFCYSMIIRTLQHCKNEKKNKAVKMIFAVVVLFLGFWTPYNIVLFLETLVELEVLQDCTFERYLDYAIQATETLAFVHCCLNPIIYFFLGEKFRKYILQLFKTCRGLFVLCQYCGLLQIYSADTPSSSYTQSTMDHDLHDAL
Assay: Calcium flow detected by FLIPR
Format: cell-based
Conditions: CCR4/HEK293 cells, agonist CCL17, Fluo-4 calcium signal
Protocol: CCR4/HEK293 cells were added to a 384-well cell culture plate (Greiner #781946) at a rate of 20 μL/well (20,000 cells/well) and incubated overnight in a 37° C., 5% CO2 incubator (Incubator, Thermo). On the second day, the 384-well cell culture plate was taken out of the incubator and the culture medium was removed; Then, 20 μL of detection buffer and 20 μL of 2X Fluo-4 Direct™ (Invitrogen, Cat #F10471) were added. Then, compounds were added at 10 μL/well (compounds were subjected to 4-fold serial dilution, and the highest detection concentration was 10 μM), and the cells were incubated in a 37° C., 5% CO2 incubator for 50 min, and then incubated at room temperature for 10 min. The 384-well culture plate was placed in FLIPR ([…]), 10 μL of 6X agonist CCL17 was added by using an automatic loader, and the fluorescence signal was read immediately. The mean and standard error (Mean±SEM) were statistically analyzed using Graphpad Prism software, and the IC50 value was calculated.
The experimental results are shown in Table 3, where A represents IC50<100 nm; B represents 100 nM≤IC50<500 nM, and C represents 500 nM≤IC50.

Cc1nc(N2CC(C3CN(CC(C)(C)O)CCO3)C2)nc(N[C@H](C)c2ccc(Cl)cc2Cl)c1Cl (stereo partly drawn) [Compound 35]
pIC50: > 7.00

Cc1nc(N2CC([C@H]3CCCN([C@H]4C[C@](C)(C(=O)O)C4)C3)C2)nc2c1CCCN2C(C)c1ccc(Cl)cc1Cl (stereo partly drawn) [Compound 36]
pIC50: 6.30 to 7.00

C#Cc1ccc(C(C)Nc2nc(N3CC([C@H]4CCCN(CCO)C4)C3)nc(C)c2Cl)c(Cl)c1 (stereo partly drawn) [Compound 38]
pIC50: 6.30 to 7.00

Cc1cc(N2CC([C@H]3CCCN([C@H]4C[C@](C)(C(=O)O)C4)C3)C2)cc(N[C@H](C)c2ccc(Cl)cc2Cl)n1 [Compound 39]
pIC50: > 7.00

C[C@@H](Nc1nc(N2CC([C@H]3CCCN([C@H]4C[C@](C)(C(=O)O)C4)C3)C2)c2ccccc2n1)c1ccc(Cl)cc1Cl [Compound 40]
pIC50: > 7.00

C[C@@H](Nc1nc(N2CC([C@H]3CCCN([C@H]4C[C@](C)(C(=O)O)C4)C3)C2)c2ccn(C)c2n1)c1ccc(Cl)cc1Cl [Compound 43]
pIC50: 6.30 to 7.00

C[C@@H](Nc1nc(N2CC([C@H]3CCCN([C@H]4C[C@](C)(C(=O)O)C4)C3)C2)c2c(ccn2C)n1)c1ccc(Cl)cc1Cl [Compound 44]
pIC50: 6.30 to 7.00

C[C@@H](Nc1nc2c(c(N3CC([C@H]4CCCN([C@H]5C[C@](C)(C(=O)O)C5)C4)C3)n1)COC2)c1ccc(Cl)cc1Cl [Compound 45]
pIC50: 6.30 to 7.00

C[C@@H](Nc1nc(N2CC([C@H]3CCCN([C@H]4C[C@](C)(C(=O)O)C4)C3)C2)c2occc2n1)c1ccc(Cl)cc1Cl [Compound 51]
pIC50: > 7.00

C[C@@H](Nc1cc(N2CC([C@H]3CCCN([C@H]4C[C@](C)(C(=O)O)C4)C3)C2)nc(C(F)(F)F)n1)c1ccc(Cl)cc1Cl [Compound 52]
pIC50: 6.30 to 7.00

C[C@@H](Nc1cc(N2CC([C@H]3CCCN([C@H]4C[C@](C)(C(=O)O)C4)C3)C2)nc2nccn12)c1ccc(Cl)cc1Cl [Compound 55]
pIC50: > 7.00

Cc1nc(N[C@H](C)c2ccc(Cl)cc2Cl)nc(N2CC([C@H]3CCCN([C@H]4C[C@](C)(C(=O)O)C4)C3)C2)c1Cl [Compound 56]
pIC50: 6.30 to 7.00

Cc1nc(N2CC(C3CN(C4CC(C)(C#N)C4)CCO3)C2)nc(N[C@H](C)c2ccc(Cl)cc2Cl)c1Cl (stereo partly drawn) [Compound 70]
pIC50: 6.30 to 7.00

Cc1nc(N2CC(F)(C3CN(CCC(=O)O)CCO3)C2)nc(N[C@H](C)c2ccc(Cl)cc2Cl)c1Cl (stereo partly drawn) [Compound 88]
pIC50: > 7.00

C[C@@H](Nc1cc(N2CCC(C3CN(CCO)CCO3)CC2)nc2ccnn12)c1ccc(Cl)cc1Cl (stereo partly drawn) [Compound 112]
pIC50: > 7.00
